The subject of one test is P. aeruginosa DSM1117. Briefly: MIC, standard microdilution assay, growing P. aeruginosa. The format is cell-based, Pseudomonas aeruginosa. The note with it: Pseudomonas aeruginosa, DSM1117, P. aeruginosa. In short, it runs like this:
(§1)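 Broth microdilution was used throughout. UPEC, P. aeruginosa and S. aureus were tested in CA-MHB buffered with 40 mM HEPES (pH 7.4); UPEC was additionally tested in LPM with 30 mM MES (pH 5.5). S. flexneri was grown in TSB. All determinations were run in triplicate.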

The subject of the next test is S. flexneri 5a M90T. Briefly: MIC in tryptic soy broth, S. flexneri. The note with it: Shigella flexneri, 5AM90T, read-out: MIC (μM) TSB. The format is cell-based, Shigella flexneri. The method in brief: as §1
The subject of a further test is non-growing UPEC CFT073. Briefly: Dilution-regrowth assay (screen, hit validation, dose-response) on stationary-phase UPEC. Type of test: cell-based, Escherichia coli. The note with it: Escherichia coli, E. coli, regrowth delay of non-growing bacteria, 24 h treatment, OD600 6 h after 2500-fold dilution, read-out: EC50. The method in brief: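 Regrowth (OD600 after 6 h, 37 °C) of diluted non-growing CFT073, following 24 h compound treatment of 24 h stationary cultures, defines activity relative to untreated control. Screen at 20 µM, validation at 20, 10, 5 µM (duplicates), dose–response in three biological replicates fitted by five-parameter logistic.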

The subject of test [1] is non-growing P. aeruginosa DSM1117. Briefly: Dilution-regrowth assay (OD600, start-growth-time) on stationary-phase P. aeruginosa. The format is cell-based, Pseudomonas aeruginosa. To be noted: Pseudomonas aeruginosa, DSM1117; P. aeruginosa; regrowth delay of non-growing bacteria, 1:4 CA-MHB pH 7.4, 24 h treatment, OD600 8 h after dilution; read-out: EC50. As for the experimental part: To determine the spectrum of activity of the compounds that were effective against non-growing UPEC, we further assessed their efficacy against the well-characterized Gram-negative and Gram-positive reference strains P. aeruginosa DSM1117 and S. aureus DSM2569, respectively. The cultures were grown and treated for 24 h in 1:4 CA-MHB (pH 7.4). […].
For better characterization of the compounds causing the strongest regrowth delay, we performed the regrowth step of the dilution-regrowth experiments on a plate reader, measuring the OD600 at 20-min intervals for over 20 h instead of using an endpoint measurement. This approach allowed us to capture the time when cultures reached a threshold optical density (start-growth-time, SGT[15]).
Overnight cultures of UPEC, P. aeruginosa and S. aureus were grown in test tubes containing 3 ml of LB broth (~16 h), then diluted 1:100 into either 1:4 diluted CA-MHB medium buffered with 40 mM HEPES (pH 7.4) or, in case of UPEC, into LPM medium[25] supplemented with 49 µM MgCl2 and buffered with 30 mM MES (pH 5.5). The cultures were incubated for 24 h in non-baffled Erlenmeyer flasks at 37 °C with shaking at 200 rpm.
For P. aeruginosa and S. aureus, dose–response analysis was conducted in 96-well plates with a 200 μl assay volume, following the procedure used for screening assay validation experiments. Aliquots of the 39 compounds active against non-growing UPEC were obtained from SelleckChem and MedChem Express. Stock solutions were prepared and stored according to the manufacturers’ instructions, then diluted in 10% DMSO before use. Cultures were incubated for 24 h in 1:4 diluted CA-MHB medium under the same conditions used for UPEC cultivation. In preliminary experiments, each compound was tested at a concentration of 20 μM in the dilution-regrowth assay with 4 technical replicates. Regrowth was monitored using a microplate reader at 37 °C with continuous shaking, and OD600 was recorded every 20 min. The time at which OD600 exceeded the threshold of 0.12 was recorded as the Start_Growth-Time.
The statistical analysis of all data, as well as EC50 and IC50 determination, was conducted using GraphPad Prism 10.2.3. Statistical significance of the drug effects was assessed using a one-way ANOVA followed by Dunnett’s test, comparing each treatment to the drug-free control. Statistical significance of the differences in chemical characteristics between the hit compounds and the Prestwick library was assessed using a Mann–Whitney test. Statistical significance was set at P ≤ 0.05. A five-parameter logistic equation was used for asymmetric sigmoidal curve fitting and for EC50 and IC50 determination. The Venn diagram in Fig. 1F was prepared using BioVenn web application. Characteristics of the chemical and physical properties of Prestwick library compounds were obtained from Supplementary Table S1 from reference. Characteristics of the hit compounds not included in the Prestwick library were retrieved from the PubChem database.

Where [2] appears, read: 1:4 diluted CA-MHB pH 7.4, read-out: MIC (μM) 1:4 CA-MHB.
Where [3] appears, read: CA-MHB pH 7.4, read-out: MIC (μM) CA-MHB.

Converted amounts (≈) assume the structure as drawn. Where two headings read alike, the source gives them in different places.

In general, MIC refers to the lowest concentration found to suppress growth. A word on the EC50: it is the concentration giving half of the maximal effect. For the compound `NC1CCN(c2c(F)cc3c(=O)c(C(=O)O)cn(C4CC4)c3c2Cl)C1` (stereo not shown) [Clinafloxacin], the minimal inhibitory concentration (MIC) in the test on P. aeruginosa DSM1117 (setting [2]) was found to be 0.25 µM (≈ 0.0914 µg/mL); with P. aeruginosa DSM1117 (setting [3]) it was 0.5 µM (≈ 0.183 µg/mL); in the test on S. flexneri 5a M90T, 0.0156 µM (≈ 0.00572 µg/mL). For the same compound, the EC50 in the test on non-growing UPEC CFT073 (pH 7.4, 1:4 CA-MHB) was found to be 906 nM; in test [1], 41 nM.
As for `CN1C[C@@H]2C[C@H]1CN2c1cc2c(cc1F)c(=O)c(C(=O)O)cn2C1CC1` [Danofloxacin], the results for the MIC with P. aeruginosa DSM1117 (setting [2]), with P. aeruginosa DSM1117 (setting [3]) and with S. flexneri 5a M90T were 4 µM (≈ 1.43 µg/mL), 4 µM (≈ 1.43 µg/mL) and 0.0625 µM (≈ 0.0223 µg/mL), respectively. The EC50 in the test with non-growing UPEC CFT073 (pH 7.4, 1:4 CA-MHB) amounted to 2160 nM; in test [1] it was 604 nM.
As for `CN1CCN(c2cc3c(cc2F)c(=O)c(C(=O)O)cn3-c2ccc(F)cc2)CC1` [Difloxacin], the results for the minimum inhibitory concentration (MIC) in the test with P. aeruginosa DSM1117 (setting [2]), in the test with P. aeruginosa DSM1117 (setting [3]) and in the test with S. flexneri 5a M90T were 8 µM (≈ 3.2 µg/mL), 8 µM (≈ 3.2 µg/mL) and 0.25 µM (≈ 0.0998 µg/mL), respectively. In addition, the half-maximal effective concentration (EC50) with non-growing UPEC CFT073 (LPM pH 5.5) was found to be 9950 nM; in the test with non-growing UPEC CFT073 (pH 7.4, 1:4 CA-MHB), 6460 nM; in test [1], 2360 nM.
`CCN1CCN(c2cc3c(cc2F)c(=O)c(C(=O)O)cn3C2CC2)CC1` [Enrofloxacin]: the minimal inhibitory concentration (MIC) in the test with P. aeruginosa DSM1117 (setting [2]) is 4 µM (≈ 1.44 µg/mL); in the test with P. aeruginosa DSM1117 (setting [3]), 4 µM (≈ 1.44 µg/mL); in the test on S. flexneri 5a M90T, 0.0625 µM (≈ 0.0225 µg/mL). Besides, the EC50 with non-growing UPEC CFT073 (LPM pH 5.5) was 21500 nM; in the test with non-growing UPEC CFT073 (pH 7.4, 1:4 CA-MHB), 5170 nM; in test [1], 690 nM.
